According to the NIST ThermoML archive (doi:10.1021/je700260f):

Details: 323.14 K, Liquid, Vibrating tube method

FC(C(F)(F)F)C(F)(F)F [1,1,1,2,3,3,3-heptafluoropropane]
Details | mass density [kg/m3]
18469 kPa | 1413.4
18489 kPa | 1413.6
18518 kPa | 1413.8
18639 kPa | 1414.5
18664 kPa | 1414.6
18688 kPa | 1414.7
18713 kPa | 1414.8
18738 kPa | 1414.8
18764 kPa | 1415.1
18787 kPa | 1415.1
18806 kPa | 1415.3
18836 kPa | 1415.4
19030 kPa | 1416.6
19049 kPa | 1416.5
19073 kPa | 1416.7
19091 kPa | 1416.8
19111 kPa | 1416.8
19136 kPa | 1416.9
19224 kPa | 1417.4
19244 kPa | 1417.5
19276 kPa | 1417.6
19303 kPa | 1417.9
19335 kPa | 1418
19359 kPa | 1418.1
19382 kPa | 1418.2
19410 kPa | 1418.4
19431 kPa | 1418.5
19452 kPa | 1418.4
19473 kPa | 1418.7
19509 kPa | 1418.8
19534 kPa | 1419.1
19563 kPa | 1419.2
19591 kPa | 1419.1
19608 kPa | 1419.2
19637 kPa | 1419.5
19667 kPa | 1419.6
19693 kPa | 1419.8
19721 kPa | 1419.9
19746 kPa | 1419.9
19771 kPa | 1420
19795 kPa | 1420.5
19830 kPa | 1420.4
19857 kPa | 1420.6
19893 kPa | 1420.7
19917 kPa | 1420.9
19942 kPa | 1421.1
19968 kPa | 1421.2
19996 kPa | 1421.3
20014 kPa | 1421.4
20047 kPa | 1421.4
20075 kPa | 1421.5
20101 kPa | 1421.8
20124 kPa | 1421.9
20452 kPa | 1423.5
20511 kPa | 1423.8
20538 kPa | 1423.8
20571 kPa | 1424.1
20600 kPa | 1424.3
20632 kPa | 1424.4
20657 kPa | 1424.6
20681 kPa | 1424.6
20715 kPa | 1424.8
20735 kPa | 1424.9
20759 kPa | 1425
20780 kPa | 1425.1
20814 kPa | 1425.2
20837 kPa | 1425.4
20864 kPa | 1425.5
20891 kPa | 1425.6
20919 kPa | 1425.8
20943 kPa | 1425.8
20963 kPa | 1426
20994 kPa | 1426.2
21021 kPa | 1426.3
21041 kPa | 1426.4
21069 kPa | 1426.5
21100 kPa | 1426.5
21124 kPa | 1426.7
21151 kPa | 1426.8
21174 kPa | 1427
21195 kPa | 1427.2
21219 kPa | 1427.1
21243 kPa | 1427.2
21271 kPa | 1427.4
21296 kPa | 1427.5
21318 kPa | 1427.7
21353 kPa | 1427.8
21376 kPa | 1428.1
21404 kPa | 1428.1
21424 kPa | 1428.1
21456 kPa | 1428.3
21478 kPa | 1428.4
21511 kPa | 1428.6
21546 kPa | 1428.8
21572 kPa | 1428.9
21597 kPa | 1429
21630 kPa | 1429.1
21660 kPa | 1429.3
21684 kPa | 1429.4
21712 kPa | 1429.4
21734 kPa | 1429.6
22001 kPa | 1430.9
22031 kPa | 1431
22058 kPa | 1431.1
22088 kPa | 1431.3
22114 kPa | 1431.5
22137 kPa | 1431.4
22174 kPa | 1431.7
22209 kPa | 1431.8
22233 kPa | 1432
22272 kPa | 1432.1
22308 kPa | 1432.2
22334 kPa | 1432.5
22366 kPa | 1432.6
22390 kPa | 1432.7
22418 kPa | 1432.7
22439 kPa | 1432.9
22462 kPa | 1433.1
22489 kPa | 1433.2
22513 kPa | 1433.3
22533 kPa | 1433.3
22571 kPa | 1433.6
22602 kPa | 1433.6
22627 kPa | 1433.8
22657 kPa | 1434
22685 kPa | 1434.1
22721 kPa | 1434.2
22744 kPa | 1434.3
22777 kPa | 1434.5
22801 kPa | 1434.6
22825 kPa | 1434.6
22862 kPa | 1434.8
22889 kPa | 1435
22927 kPa | 1435.2
22962 kPa | 1435.2
23026 kPa | 1435.6
23049 kPa | 1435.7
23075 kPa | 1435.7
23101 kPa | 1436
23130 kPa | 1436.1
23163 kPa | 1436.3
23185 kPa | 1436.3
23221 kPa | 1436.4
23254 kPa | 1436.5
23276 kPa | 1436.7
23305 kPa | 1436.8
23328 kPa | 1437
23354 kPa | 1437.1
23380 kPa | 1437.2
23402 kPa | 1437.2
23428 kPa | 1437.5
23454 kPa | 1437.5
23484 kPa | 1437.7
23510 kPa | 1437.7
23538 kPa | 1437.9
23560 kPa | 1438
23587 kPa | 1438.1
23609 kPa | 1438.2
23776 kPa | 1439
23810 kPa | 1439
23832 kPa | 1439.2
23865 kPa | 1439.2
23891 kPa | 1439.5
23918 kPa | 1439.6
23949 kPa | 1439.6
23975 kPa | 1439.9
23998 kPa | 1439.9
24025 kPa | 1440
24056 kPa | 1440
24079 kPa | 1440.3
24109 kPa | 1440.4
24134 kPa | 1440.5
24156 kPa | 1440.7
24187 kPa | 1440.7
24223 kPa | 1440.9
24254 kPa | 1441.1
24277 kPa | 1441.2
24304 kPa | 1441.1
24342 kPa | 1441.4
24400 kPa | 1441.5
24420 kPa | 1441.7
24564 kPa | 1442.3
24596 kPa | 1442.6
24658 kPa | 1442.8
24699 kPa | 1443
24727 kPa | 1443.1
24768 kPa | 1443.2
24794 kPa | 1443.4
24828 kPa | 1443.6
24859 kPa | 1443.8
24889 kPa | 1443.8
24914 kPa | 1444
24955 kPa | 1444.1
24984 kPa | 1444.1
25017 kPa | 1444.3
25047 kPa | 1444.4
25081 kPa | 1444.7
25116 kPa | 1444.8
25141 kPa | 1445
25410 kPa | 1446.1
25440 kPa | 1446.3
25947 kPa | 1448.3
25974 kPa | 1448.4
26063 kPa | 1448.8
26227 kPa | 1449.5
26309 kPa | 1449.7
